{
  "source": "patent US20190209581A1",
  "about": "“DOSAGE REGIMEN FOR TREATMENT OF SOLID TUMORS” (Eli Lilly and Company, priority 2016, published 2019)",
  "key": {"[1]": {"system": "HEL 92.1.7 human erythroleukemia cell line", "test": "Tumor growth inhibition, HEL 92.1.7 xenograft", "format": "in vivo", "details": "HEL 92.1.7 in mice, oral 8 mg/kg, Q2dx14; p NS", "experimental": "(§1) To evaluate in vivo efficacy and effect of 4,4,4-Trifluoro-N-[(1S)-2-[[(7S)-5-(2-hydroxyethyl)-6-oxo-7H-pyrido[2,3-d][3]benzazepin-7-yl]amino]-1-methyl-2-oxo-ethyl]butanamide on inhibition of Notch processing pharmacodynamics (PD), several cell lines- and patient-derived xenograft models are used. A2780 is a human ovarian cell line (Sigma-Aldrich, No. 93112519); SW480 is a human colorectal cell line (ATCC No. CCL-228); HCT 116 is a human colorectal cell line (ATCC No. CCL-247); U-87 MG is a human glioblastoma cell line (ATCC No. HTB-14); A375 is a human malignant melanoma cell line (ATCC No. CRL-1619); K-562 is a human chronic myelogenous leukemia (CML) cell line characterized by the presence of a fusion transcript comprised of the Bcr and Abl1 genes (ATCC No. CCL-243); Jurkat; HEL 92.1.7 is a human erythroleukemia cell line (ATCC No. TIB-180). […] Tumor growth and body weight are monitored over time to evaluate efficacy and signs of toxicity. Bidimensional measurements of tumors are performed twice a week and tumor volumes are calculated based on the following formula: (Tumor Volume)=[(L)×(W2)×(Π/6)] where L is mid-axis length and W is mid-axis width. […] The log volume data are analyzed with a two-way repeated measures analysis of variance by time and treatment using the MIXED™ procedures in SAS™ software (version 8.2). […]"}, "[2]": {"system": "A375 human malignant melanoma cell line", "test": "Tumor growth inhibition, A-375 xenograft", "format": "in vivo", "details": "A-375 in mice, oral 8 mg/kg, (Mon, Wed, Fri)x4; p NS", "experimental": "as §1"}},
  "data": [
    {"smiles": "C[C@H](NC(=O)CCC(F)(F)F)C(=O)N[C@@H]1C(=O)N(CCO)c2ncccc2-c2ccccc21", "note": "[Compound 1, 4,4,4-trifluoro-N-[(1S)-2-[[(7S)-5-(2-hydroxyethyl)-6-oxo-7H-pyrido[2,3-d][3]benzazepin-7-yl]amino]-1-methyl-2-oxo-ethyl]butanamide]", "values": [
      {"measurement": "% TGI", "setting": "[1]", "value": "7.20 (NS) %"},
      {"measurement": "% TGI", "setting": "[2]", "value": "28.47 (NS) %"}
    ]}
  ]
}
